In patent US11116774B2, “Modulators of toll-like receptors for the treatment of HIV” (Gilead Sciences, Inc., priority 2014, dated 2021):
“And” between values parts separate entries of the source, which are not always exact repeats. Equal values may be shown once. Read-outs that look alike come from different tables or passages of the source.

Experiments:
[1] = tested on: CD3+CD4+ lymphocytes in PBMC cultures from HIV-1 infected donors; assay: In vitro lymphocyte subset activation in PBMC cultures, CD69 on CD4+ lymphocytes (Example 207); assay type: cell-based, human; conditions: 24 hours; for CD69 Expression on CD3+CD4+ Lymphocytes, Mean Maximum Expression Background Subtracted: mean of donors 120-123; for CD69 Expression on CD3+CD4+ Lymphocytes, Maximum Expression (Actual %) / CD69 Expression on CD3+CD4+ Lymphocytes, Maximum Expression Background Subtracted: per donor, PBMC from HIV-1 infected donors
Experimental: (§1) Total PBMC cultures were treated with various concentrations of the identified TLR7 modulating compounds (Compounds of Example 4 and Example 49) for 24 hours. At the end of the incubation period, total PBMC were harvested and stained with antibodies conjugated to specific fluorophores to delineate human CD4 lymphocytes (CD3+CD4+CD8−) or CD8 lymphocytes (CD3+CD8+CD4-) and co-expressing the early activation marker CD69. Cells were analyzed by flow cytometry and data collected on an LSR FortessaX20 instrument (BD Biosciences).

[2] = tested on: CD3+CD8+ lymphocytes in PBMC cultures from healthy and HIV-1 infected donors; assay: In vitro lymphocyte subset activation in PBMC cultures, CD69 on CD8+ lymphocytes (Example 207); assay type: cell-based, human; conditions: 24 hours; for CD69 Expression on CD3+CD8+ Lymphocytes, Mean Maximum Expression Background Subtracted: mean of donors 120-123; for CD69 Expression on CD3+CD8+ Lymphocytes, Maximum Expression (Actual %) / CD69 Expression on CD3+CD8+ Lymphocytes, Maximum Expression Background Subtracted: per donor, PBMC cultures
Experimental: as §1

[3] = tested on: HIV-1 expression in PBMC cultures from HIV-1 infected donors on cART; assay: Induced HIV-1 expression in PBMC cultures from HIV-1 infected donors on cART (Example 208); assay type: cell-based, human; conditions: for patients whose cultures showed two-fold or higher activation over the DMSO control: 4 to 5 days, with elvitegravir and efavirenz 100 nM each; for fold induction at 0.01 µM / fold induction at 0.1 µM / fold induction at 0.156 µM / fold induction at 1 µM / fold induction at 2.5 µM / fold induction at 10 µM: Human immunodeficiency virus 1, PBMC; for fold induction at 0.01 µM: read-out: Fold HIV-1 Induction, Geometric Mean, 0.01 μM; for fold induction at 0.01 µM / fold induction at 0.156 µM / fold induction at 2.5 µM: donors 152-155; for fold induction at 0.1 µM: read-out: Fold HIV-1 Induction, Geometric Mean, 0.1 μM; for fold induction at 0.1 µM / fold induction at 1 µM: donors 122, 124-128; for fold induction at 0.156 µM: read-out: Fold HIV-1 Induction, Geometric Mean, 0.156 μM; for fold induction at 1 µM: read-out: Fold HIV-1 Induction, Geometric Mean, 1 μM; for fold induction at 2.5 µM: read-out: Fold HIV-1 Induction, Geometric Mean, 2.5 μM; for fold induction at 10 µM: read-out: Fold HIV-1 Induction, Geometric Mean, 10 μM, donors 124-127
Experimental: Isolated PBMCs were treated with various concentrations (0.1, 1, and 10 μM) of the TLR7 modulating compounds (compounds of Example 4 and Example 49) or dimethyl sulfoxide (DMSO) treated (vehicle control) for 4 to 5 days. The cultures were maintained in the presence of antivirals (elvitegravir and efavirenz at 100 nM each) to prevent viral spread and amplification in order to measure initial virus production (latency reversal) created by the TLR7 modulating compounds. At the end of the incubation period cell-free culture supernatants were harvested and HIV-1 RNA levels were quantified by the COBAS® AmpliPrep/COBAS® TaqMan HIV-1 Test, v2.0 (Roche).
Using the method described above in Example 208, HIV-1 expression in PBMC cultures derived from four additional HIV-1 infected donors on cART were tested in the presence of the compounds of Examples 4, 29, 120, 121, 122, 123, 124, resiquimod, and imiquimod.

HIV-1BaL = assay: Antiviral activity on in vitro HIV-1 infected PBMC cultures, Gag p24 ELISA (Example 209); assay type: cell-based; conditions: Human immunodeficiency virus 1, 144 h, PHA-stimulated human PBMC infected with HIV-1BaL, six days with IL-2, Gag p24
Experimental: Antiretroviral activity was assessed by testing the TLR7 modulating compounds (Compounds of Example 4 and Example 49) in total human PBMC cultures that were first treated with mitogen (phytohemogglutinin A) for two days prior to infection with HIV-1BaL. Infected cells were cultured in the presence of interleukin-2 and various concentrations of the TLR7 modulating compounds or the nucleoside analog HIV-1 reverse transcriptase inhibitor azidothymidine (AZT, positive control) for six days. At the end of the incubation period, cell-free culture supernatants were harvested and antiviral activity determined by measuring production of HIV-1 Gag p24 by commercially available ELISA kits.

[4] = tested on: HIV in PBMCs from HIV-infected donors on suppressive cART; assay: Activation of HIV by Example 49 ex vivo in PBMCs (Example 210); assay type: cell-based, human; conditions: N = 18 donors, day 4
Experimental: PBMCs from 18 HIV-infected donors (Donor IDs 152-169) on suppressive cART were isolated, as described previously in Materials and Methods (PBMC Isolation), and immediately added to tissue culture plates pre-equilibrated at 37° C. with media containing DMSO or the compound of Example 49 (GS-9620) at 0.1 uM or 1.0 uM. At day 4 after treatment, cell-free culture supernatants were collected and HIV viral RNA was quantitated using the automated COBAS® AmpliPrep/COBAS® TaqMan® HIV-1 Test, v2.0 system (Roche Diagnostics, Indianapolis, Ind.), as described previously in Materials and Methods (HIV-1 Activation Assay). Geometric mean fold HIV activations from three independent wells for each donor and each condition were expressed as a ratio of HIV-1 RNA copies/ml detected in culture supernatants from TLR7 agonist treated and DMSO treated wells. Fold HIV activation values were plotted using GraphPad Prism software (GraphPad, San Diego, Calif.) and can be seen in FIG. 7. The dashed line indicates 2-fold induction.

[5] = tested on: peripheral CD4 lymphocytes (CD3+CD4+CD8−); assay: Peripheral lymphocyte activation, CD69 by flow cytometry: CD4 lymphocytes (Example 206); assay type: in vivo, rhesus macaque
Source text: During the course of treatment with the compound of Example 4 as described in Example 204, peripheral lymphocyte activation was monitored in the groups dosed with the compound of Example 4 or the dosing vehicle of Example 201 (placebo), by measuring the expression of the early activation marker CD69 on various lymphocyte subsets by flow cytometry methodology. This methodology was used to quantify the percentage of immune cell subsets expressing the early activation marker. Standard data acquisition techniques were employed on a flow cytometer and by the use of antibodies conjugated to fluorescent molecules where the antibodies recognize rhesus macaque cell surface proteins on various immune cell subsets. In animals dosed with the compound of Example 4, whole blood samples were collected for each dose at various time points both at pre- and post-administration of compound. Total PBMCs were stained in the whole blood samples using antibodies that were chosen to be reactive to rhesus CD3, CD4, CD8, NKG2A, CD16 and CD56, each conjugated to different fluorescent probes to delineate CD3+CD4+CD8− lymphocytes, CD3+CD4−CD8+ lymphocytes and CD3-CD8+ NKG2A+CD16+ CD56+ NK cells. The flow cytometry data presented herein are from animals treated with the compound of Example 4.

[6] = at least 8 independent donors, read-out: Range EC50
[7] = mean ± SD from at least 8 independent donors, read-out: Mean EC50

Row | Structure (SMILES) | CD69 Expression on CD3+CD4+ Lymphocytes, Mean Maximum Expression Background Subtracted [1] | CD69 Expression on CD3+CD4+ Lymphocytes, Maximum Expression (Actual %) [1] | CD69 Expression on CD3+CD4+ Lymphocytes, Maximum Expression Background Subtracted [1] | CD69 Expression on CD3+CD8+ Lymphocytes, Mean Maximum Expression Background Subtracted [2] | CD69 Expression on CD3+CD8+ Lymphocytes, Maximum Expression (Actual %) [2] | CD69 Expression on CD3+CD8+ Lymphocytes, Maximum Expression Background Subtracted [2] | Donors with ≥2-fold HIV-1 Induction ([3]; 0.01 μM, Tables 7-11) | Donors with ≥2-fold HIV-1 Induction ([3]; 0.1 μM, Table 6) | Donors with ≥2-fold HIV-1 Induction ([3]; 0.156 μM, Tables 7-11) | Donors with ≥2-fold HIV-1 Induction ([3]; 1 μM, Table 6) | Donors with ≥2-fold HIV-1 Induction ([3]; 2.5 μM, Tables 7-11) | Donors with ≥2-fold HIV-1 Induction ([3]; 10 μM, Table 6) | fold induction at 0.01 µM ([3]; Tables 7-11) | fold induction at 0.1 µM ([3]; Table 6) | fold induction at 0.156 µM ([3]; Tables 7-11) | fold induction at 1 µM ([3]; Table 6) | fold induction at 2.5 µM ([3]; Tables 7-11) | fold induction at 10 µM ([3]; Table 6) | EC50 (HIV-1BaL; [6]) | EC50 (HIV-1BaL; [7]) | also measured
1 | CCCCOc1nc(N)c2c(n1)N(Cc1cccc(CN3CCCC3)c1)CC(=O)N2 [Example 49] | 22% | 59% and 39% and 24% and 25% | 21% and 20% and 23% and 24% | 31% | 55% and 43% and 35% and 32% | 31% and 29% and 33% and 30% | 2 of 4 | 3 of 6 | 4 of 4 | 4 of 6 | 4 of 4 | 1 of 4 | 4 | 2.3 | 6.7 | 2.8 | 9.4 | 1.4 | 4 to 691 nM | 170 ± 240 nM | patients whose cultures showed two-fold or higher activation over the DMSO control ([3]; 0.1 μM): 4 of 6; patients whose cultures showed two-fold or higher activation over the DMSO control ([3]; 1 μM): 3 of 6; patients whose cultures showed two-fold or higher activation over the DMSO control ([3]; 10 μM): 1 of 4; Fold geometric mean (HIV activation) ([4]; 100 nM): 9.3 fold; Fold range (HIV activation) ([4]; 100 nM): 2.7-26.6 fold; N (%) with ≥2-fold activation ([4]; 100 nM): 10 (56) N (%); Fold geometric mean (HIV activation) ([4]; 1,000 nM): 6.5 fold; Fold range (HIV activation) ([4]; 1,000 nM): 2.0-21.5 fold; N (%) with ≥2-fold activation ([4]; 1,000 nM): 11 (61) N (%); Fold geometric mean (HIV activation) ([4]; 100 and/or 1,000 nM): 9.1 fold; Fold range (HIV activation) ([4]; 100 and/or 1,000 nM): 2.0-26.6 fold; N (%) with ≥2-fold activation ([4]; 100 and/or 1,000 nM): 13 (72) N (%)
2 | CCCCOc1nc(N)c2c(n1)N(Cc1ccc(CN3CCCC3)cc1)CC(=O)N2 [Example 4] | 22% | 57% and 41% and 26% and 24% | 19% and 21% and 25% and 24% | 32% | 60% and 44% and 35% and 32% | 36% and 30% (2×) and 33% | 4 of 4 | 4 of 6 | 4 of 4 | 3 of 6 | 4 of 4 | 3 of 4 | 4.3 | 2 | 5.3 | 1.6 | 4 | 3.9 | 0.8 to 81 nM | 33 ± 35 nM | mean maximum percent change in CD69 expression on CD4 lymphocytes ([5]; all subsequent doses): 1.7%; mean maximum percent change in CD69 expression on CD4 lymphocytes ([5]; dose 0.1 mg/kg, any time point (rise 24 to 72 hours post-dose), pre-dose range 0.5-1.7%): 1.1%; mean maximum percent change in CD69 expression on CD4 lymphocytes ([5]; dose 0.2 mg/kg, pre-dose range 0.5-2%): 1.5%; mean maximum percent change in CD69 expression on CD4 lymphocytes ([5]; first dose of 0.3 mg/kg, pre-dose range 0.6-2.5%): 2.3%
